Source: patent publication US20040072146A1, “Mechanism of mitochondrial membrane permeabilization by HIV-1 Vpr, mimetics of Vpr and methods of screening active molecules having the ability to alter and/or prevent and/or mimic the interaction of Vpr with ANT” (priority 2000, published 2004)
Entries after “also recorded” stand apart in the source; their conditions may differ. Where a SMILES comes first, the peptide text is derived from it.

How the values were obtained:
biotin-Vpr52-96 (HIV-1) = biotin-Vpr52-96 (HIV-1) (UniProt P12520); test: SPR, Langmuir isotherm, peptide on biotinylated Vpr52-96
ANT = target: T1, ANT (Rattus norvegicus, UniProt Q05962); test: Single channel recordings in planar lipid bilayers; format: biochemical
T1 construct: from tissue
T1 sequence (Q05962 whole entry, looked up): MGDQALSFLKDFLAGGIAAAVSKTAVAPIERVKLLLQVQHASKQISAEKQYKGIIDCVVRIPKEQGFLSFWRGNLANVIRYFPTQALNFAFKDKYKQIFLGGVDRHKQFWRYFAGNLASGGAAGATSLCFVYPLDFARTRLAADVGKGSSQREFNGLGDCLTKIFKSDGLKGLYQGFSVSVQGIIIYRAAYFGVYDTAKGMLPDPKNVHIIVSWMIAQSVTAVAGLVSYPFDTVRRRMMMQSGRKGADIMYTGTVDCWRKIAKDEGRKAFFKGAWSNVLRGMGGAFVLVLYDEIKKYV
Description: FIG. 3 presents electrophysiological properties of Vpr52-96 and ANT in planar lipid bilayers. Current fluctuations of Vpr52-96 (80 nM, +150 mV), Vpr52-96(0.4 nM, +100 mV), ANT (1 nM, +110 mV) and Vpr52-96+ANT (0.4:1 nM, +115 mV) and associated histograms (right) of conductance levels are shown.
Current fluctuations of Vpr52-96 (80 nM, +150 mV), Vpr52-96 (0.4 nM, +100 mV), ANT (1 nM, +110 mV) and Vpr52-96+ANT (0.4:1 nM, 115 mV) after incorporation into synthetic membranes. Single channel recordings were performed using the “Tip-Dip” technique. The recordings shown are representative for at least three independent determinations.
B. Statistical analysis of conductances obtained in A. Results were expressed as current distributions at different voltages. Conductances (γ; in picosiemens, pS) are calculated by division of current by voltage.

ANT-proteoliposomes = target: T2, ANT-proteoliposomes (Rattus norvegicus, UniProt Q05962); test: FITC-labeled Vpr52-96 binding onto ANT-liposomes and plain liposomes; settings: BA 50 μM; Bcl-2 800 nM
T2 construct: ANT is purified from rat heart and reconstituted in liposomes; from tissue; host or cells: rat heart (ANT)
T2 sequence (Q05962 1-298): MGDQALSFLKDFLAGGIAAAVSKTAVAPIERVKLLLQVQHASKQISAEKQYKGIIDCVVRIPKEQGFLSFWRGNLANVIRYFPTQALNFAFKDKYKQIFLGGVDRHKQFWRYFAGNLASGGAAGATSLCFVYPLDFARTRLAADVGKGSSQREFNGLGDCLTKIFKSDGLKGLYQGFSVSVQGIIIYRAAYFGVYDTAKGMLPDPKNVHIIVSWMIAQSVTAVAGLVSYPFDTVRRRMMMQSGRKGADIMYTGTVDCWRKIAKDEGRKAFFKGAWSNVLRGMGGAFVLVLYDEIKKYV
Description: A. Dose-response curve of FITC-labeled Vpr52-96 binding onto ANT-liposomes and plain liposomes.
B. Binding of FITC-Vpr52-96 (2 μM) to plain liposomes, ANT-proteoliposomes, in the presence or absence of BA (50 μM).

purified mitochondria [1] = test: Inner versus outer mitochondrial membrane permeabilization (NADH oxidation, cytochrome c oxidation); format: biochemical; settings: for prevention of Vpr-mediated inner MMP to NADH: preincubation 10 min, Bcl-2 0.8 μM, BA 10 μM
Description: A. Respirometry performed after addition of NADH and Vpr52-96 (1 μM). Numbers along the traces are nmol of O2 consumed min^−1 mg^−1 protein.
B. Kinetics of Vpr52-96 induced inner membrane permeabilization to NADH and outer membrane permeabilization to reduced cytochrome c. Oxygen consumption was determined in the presence of 2 mM NADH (full squares) as in A (traces C-D) and cytochrome c (15 μM) oxidation (open circles) was spectrofluorometrically measured, as described Rustin et al., 1994). The 100% value of cytochrome c oxidation was determined by addition of 2.5 mM laurylmaltoside.
Oxygen consumption of purified mitochondria was measured as in FIG. 5 after addition of succinate+CCCP or NADH, as indicated.

isolated mitochondria = test: Electron microscopy of isolated mitochondria (matrix swelling); format: biochemical; settings: pre-incubation of mitochondria
Description: C. Ultrastructural effects of Vpr on isolated mitochondria.

purified mitochondria [2] = test: ΔΨm dissipation in purified mitochondria (JC-1 flow cytometry); format: biochemical; settings: 5 μM CsA, 50 μM BA, 0.8 μM Bcl-2, 2 μM PA10
Description: Numbers indicate the percentage of JC-1^high and JC-1^low mitochondria among ˜10^4 events.
E. Quantitation of the frequency of JC-1^low mitochondria (X±SD, n=5) after incubation with different Vpr-derived peptides.

purified mitochondria [3] = test: FITC-Vpr52-96 binding to purified mitochondria; settings: pre-incubation of the organelles
Description: Mitochondria were left unstained (insert in Co.) or exposed to the ΔΨm-insensitive mitochondrial dye MitoTracker® Green (75 nM), alone (MTG) or with 0.5 μM of FITC-Vpr52-96; green fluorescence), in combination with the ΔΨm-sensitive mitochondrial dye MitoTracker® Red (CMXRos; red Fluorescence) followed by cytofluorometric two-color analysis. Numbers indicate the percentage of mitochondria in each quadrant.
Mitochondria were incubated with the indicated inhibitors, and then exposed for 30 min at RT with 5 μM biotinylated Vpr52-96. Mitochondria were lysed either after incubation with biotinylated Vpr52-96 (upper panel) or lysed before (lower panel) with Tris/HCl as described in materials and methods. Biotinylated Vpr52-96 complexed with its mitochondrial ligands was retained on avidin-agarose and subjected to immunoblot detection of ANT.

purified mitochondria [4] = test: Respirometry of purified mitochondria, respiratory control; format: biochemical; settings: for effect on respiratory control (RC): 1 μM peptide, 10 min
Description: A. Oxygen consumption curves after addition of the indicated agents. Trace a: control mitochondria (no pretreatment). Trace b: mitochondria pretreated for 10 min with 1 μM Vpr52-96. Numbers along the traces are nmol of O2 consumed min^−1 mg^31 1 protein.
B. Respiratory control (RC) values calculated by dividing oxygen consumption in the presence of CCCP by that measured with oligomycin (determined as in A), 10 min after addition of 1 μM of Vpr-derived peptides (mean values of 3 determinations).

biotinylated Vpr52-96 = biotinylated Vpr52-96 (Human immunodeficiency virus type 1 group M subtype B, UniProt P69726); format: binding, HIV-1
COS cells = test: ΔΨm dissipation in intact microinjected cells (JC-1); format: cell-based
Description: A. Vpr52-96-induced ΔΨm dissipation induced in intact cells.

[5] = target: biotin-Vpr52-96 (HIV-1), P12520; test: SPR, immobilised biotin-Vpr52-96, detergent-solubilized ANT as analyte
[6] = target: T3, adenine nucleotide translocator (ANT), native purified protein (rat), Q05962; test: cell-based or functional assay
T3 chain: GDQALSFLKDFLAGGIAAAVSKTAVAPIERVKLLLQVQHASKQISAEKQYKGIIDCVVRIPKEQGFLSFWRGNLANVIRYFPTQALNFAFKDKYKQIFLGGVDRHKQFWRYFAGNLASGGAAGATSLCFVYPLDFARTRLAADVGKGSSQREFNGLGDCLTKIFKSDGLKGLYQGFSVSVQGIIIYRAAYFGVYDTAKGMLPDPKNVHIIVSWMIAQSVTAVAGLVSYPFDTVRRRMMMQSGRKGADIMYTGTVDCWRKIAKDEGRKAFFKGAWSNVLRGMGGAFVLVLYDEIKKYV

[7] = target: T4, adenine nucleotide translocator (ANT), native purified protein (rat, UniProt Q05962 2-298); test: not stated (summary paragraph)
T4 construct: mature; also called adenine nucleotide translocase; ADP/ATP carrier
T4 sequence: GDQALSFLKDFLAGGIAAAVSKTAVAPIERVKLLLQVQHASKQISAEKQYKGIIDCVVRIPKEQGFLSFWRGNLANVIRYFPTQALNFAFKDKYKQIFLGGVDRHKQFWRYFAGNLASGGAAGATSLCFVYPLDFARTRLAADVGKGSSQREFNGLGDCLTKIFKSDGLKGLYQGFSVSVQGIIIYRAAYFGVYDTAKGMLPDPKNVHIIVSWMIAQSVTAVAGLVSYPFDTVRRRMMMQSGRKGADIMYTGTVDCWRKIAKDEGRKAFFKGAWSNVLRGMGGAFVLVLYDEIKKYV

Work on ANT-2-derived peptide ANT104-116 yielded a Kd (biotin-Vpr52-96 (HIV-1)) of 35 µM.

“Bax: pro-apoptotic Bcl-2 family protein added to Vpr52-96-ANT channels” was tested, and the “mean conductance of Vpr52-96-ANT channels with Bax” value (ANT; Vpr52-96+ANT+Bax 0.4:1:0.3 nM, +75 mV) was 245±2 S.

In the case of `CO[C@H](C/C=C\C=C\CC/C=C/C[C@H](C)/C=C/C(=C\C(=O)O)CC(=O)O)/C(C)=C\C=C(/C)C(=O)O` [bongkrekic acid, reference compound], the “effect on Vpr52-96 binding to ANT liposomes (membrane-associated ANT)” value (ANT-proteoliposomes) is reported as “inhibited”, the “prevention of Vpr-mediated inner MMP to NADH” value (purified mitochondria [1]) is reported as “prevented the Vpr-mediated inner MMP to NADH” and the “inhibition of Vpr-induced matrix swelling” value (isolated mitochondria) is reported as “inhibited”. For the same molecule, the “inhibition of Vpr-induced ΔΨm loss in purified mitochondria” value (purified mitochondria [2]) was “inhibited” and the “effect on binding of Vpr52-96 to purified mitochondria” value (purified mitochondria [3]) was “partially reduced”.

With HFRIGCRHSRIG [Vpr71-82] the “effect on respiratory control (RC)” value (purified mitochondria [4]) was “also reduced the RC values”.

In the case of Bcl-2: recombinant human Bcl-2 protein, the “binding to Vpr52-96” value (biotinylated Vpr52-96) is reported as “did not bind Vpr52-96”, the “effect on Vpr52-96 binding to ANT liposomes (membrane-associated ANT)” value (ANT-proteoliposomes) is reported as “reduced Vpr52-96 binding” and the “effect on formation of Vpr52-96 induced channels in ANT-containing lipid bilayers” value (ANT; Vpr52-96+ANT+Bcl-2 0.4:1:1 nM) is reported as “abolished the formation of Vpr52-96 induced channels in ANT-containing lipid bilayers”. The “prevention of Vpr-mediated inner MMP to NADH” value (purified mitochondria [1]) was “prevented the Vpr-mediated inner MMP to NADH”, the “inhibition of Vpr-induced matrix swelling” value (isolated mitochondria) was “inhibited; also recorded: strongly reduced” and the “inhibition of Vpr-induced ΔΨm loss in purified mitochondria” value (purified mitochondria [2]) was “inhibited; also recorded: strongly reduced”. For the same molecule, the “prevention of Vpr effects on intact cells” value (COS cells; microinjected, Bcl-2 10 μM, PA10 2 μM) was “prevented” and the “effect on binding of Vpr52-96 to purified mitochondria” value (purified mitochondria [3]) was “failed to impair the binding of Vpr52-96 to purified mitochondria”.

`C=C(C)[C@H]1Cc2c(ccc3c2O[C@@H]2COc4cc(OC)c(OC)cc4[C@@H]2C3=O)O1` [rotenone, reference compound] was tested, and the “sensitivity of Vpr-stimulated, NADH-dependent O2 consumption” value (purified mitochondria [1]) was “fully sensitive to rotenone”.

For “Vpr: proapoptotic 96 amino acid HIV-1 regulatory protein, full length Vpr1-96 (DTWAGVEAIIRILQQLLFIHFRIGCRHSRIGVTRQRRARNGASRS)”, the “effect on respiratory control (RC)” value (purified mitochondria [4]) was “also reduced the RC values”, the “oxidation rate accompanying loss of RC” value (purified mitochondria [4]; short-term incubation) was “not associated with a significant decrease of the oxidation rate” and the “ΔΨm loss in intact cells” value (COS cells; extracellular addition) was “induced a rapid ΔΨm loss, before nuclear condensation occurred”.

Molecule `C[C@H](NC(=O)[C@H](Cc1ccccc1)NC(=O)[C@H](Cc1ccc(O)cc1)NC(=O)[C@H](CCCNC(=N)N)NC(=O)[C@H](Cc1c[nH]c2ccccc12)NC(=O)[C@H](Cc1ccccc1)NC(=O)[C@H](CCC(N)=O)NC(=O)[C@@H](NC(=O)[C@H](CCCNC(=N)N)NC(=O)[C@H](CCCCN)NC(=O)[C@@H](N)CC(=O)O)[C@@H](C)O)C(=O)NCC(=O)N[C@@H](CC(N)=O)C(=O)O` [ANT104-116] (H-DKRTQFWRYFAGN-OH; N-terminus and C-terminus assumed) has a Kd (biotinylated Vpr52-96; read-out: calculated KD of binding of ANT104-116 to biotinylated Vpr52-96, Langmuir isotherm) of 35 µM.

B1: adenine nucleotide translocator (ANT), native purified protein, Q05962 2-298 (protein)
chain: GDQALSFLKDFLAGGIAAAVSKTAVAPIERVKLLLQVQHASKQISAEKQYKGIIDCVVRIPKEQGFLSFWRGNLANVIRYFPTQALNFAFKDKYKQIFLGGVDRHKQFWRYFAGNLASGGAAGATSLCFVYPLDFARTRLAADVGKGSSQREFNGLGDCLTKIFKSDGLKGLYQGFSVSVQGIIIYRAAYFGVYDTAKGMLPDPKNVHIIVSWMIAQSVTAVAGLVSYPFDTVRRRMMMQSGRKGADIMYTGTVDCWRKIAKDEGRKAFFKGAWSNVLRGMGGAFVLVLYDEIKKYV
B1 was tested, and the Kd [5] was 0.0097 µM.

DTWAGVEAIIRILQQLLFIHFRIGCRHSRIGVTRQRRARNGASRS (modifications not checked) [Vpr52-96, P12520 52-96] was tested, and the conductance of Vpr52-96-ANT channels in the presence of Bax [6] was 245 pS and the conductance of channels formed by ANT and Vpr52-96 in planar lipid bilayers [6] was 190 pS.

DTWAGVEAIIRILQQLLFIHFRIGCRHSRIGVTRQRRARNGASRS (other, also called viral protein R) [HIV-1 Vpr] showed a Kd [7] of 0.001 µM.
